Assay [1] relates to Candida albicans. Nature of the assay: Antifungal activity against Candida albicans ATCC 10231 after 48 hrs by broth dilution method. Format: functional. Particulars: ATCC 10231, 48 h. (Broth dilution looks for growth in wells or tubes with falling amounts of substance.)
The test system of assay [2] is Aspergillus fumigatus. Nature of the assay: Antifungal activity against Aspergillus fumigatus ATCC 16424 after 48 hrs by broth dilution method. Particulars: ATCC 16424, 48 h. Format: functional.
Assay [3] relates to Candida albicans. Nature of the assay: Antifungal activity against Candida albicans ATCC 10231 at 128-0.01 ug/ml spectroscopy analysis. Format: functional, organism-based.
The test system of assay [4] is Nakaseomyces glabratus. Nature of the assay: Antifungal activity against Candida glabrata ATCC 48435 at 128-0.01ug/ml spectroscopy analysis. Format: functional, organism-based.
Assay [5] has as its system Cryptococcus neoformans. Nature of the assay: Antifungal activity against Cryptococcus neoformans ATCC 36556 at128-0.01 ug/ml spectroscopy analysis. Format: functional, organism-based.
Assay [6] concerns Aspergillus fumigatus. Nature of the assay: Antifungal activity against Aspergillus fumigatus ATCC 16424 at 128-0.01 ug/ml by spectroscopy analysis. Format: functional, organism-based.
Assay [7] relates to Cryptococcus neoformans. Nature of the assay: Antifungal activity against Cryptococcus neoformans ATCC 36556 after 48 hrs by broth dilution method. Format: functional. Particulars: ATCC 36556, 48 h.
The test system of assay [8] is Nakaseomyces glabratus. Nature of the assay: Antifungal activity against Candida glabrata ATCC 48435 after 48 hrs by broth dilution method. Format: functional. Conditions: ATCC 48435, 48 h.

Molecules are shown by their SMILES. In brackets after ≈: the same amount, converted by molar mass. Activity calls are given as the source filed them.

For orientation: MIC means the smallest concentration in the dilution series that meets the test's criterion for growth inhibition.

For `CC(=O)O[C@@H]1C[C@@]2(C)[C@@H](CC[C@H]3[C@@H]4CCC[C@@]4(C)CC[C@@H]32)CC1=O`, the MIC is 0.125 µg/mL (≈ 0.376 µM) against Candida albicans [1] and 1 µg/mL (≈ 3.01 µM) with Aspergillus fumigatus [2] (read-out: MIC).
In the case of `C[C@@]12CCC[C@H]1[C@@H]1CC[C@H]3C[C@@H](O)CC[C@]3(C)[C@H]1CC2`, the “growth inhibition (GI)” value in the assay with Candida albicans [3], with Nakaseomyces glabratus [4], in the assay on Cryptococcus neoformans [5] and in the assay on Aspergillus fumigatus [6] was “Active” throughout.
With `CC(=O)O[C@]12C[C@@H]3CC[C@@H]4[C@H](CC[C@]5(C)[C@@H]([C@H](C)CCCC(C)C)CC[C@@H]45)[C@@]3(C)C[C@H]1O2`, the lowest concentration to inhibit growth against Aspergillus fumigatus [2] (MIC) was 8 µg/mL (≈ 18 µM).
As to `CC(=O)O[C@@H]1C[C@@]2(C)[C@@H](CC[C@@H]3[C@@H]2CC[C@]2(C)[C@@H]([C@H](C)CCCC(C)C)CC[C@@H]32)C[C@H]1OC(=O)CCC(=O)O`, the minimum inhibitory concentration (MIC) with Cryptococcus neoformans [7] is 8 µg/mL (≈ 14.6 µM); in the assay with Aspergillus fumigatus [2] (read-out: MIC), 2 µg/mL (≈ 3.66 µM).
As to `CC(C)CCC[C@@H](C)[C@H]1CC[C@H]2[C@@H]3CC[C@H]4C[C@@H](OC(=O)CCC(=O)O)[C@H](OC(=O)CCC(=O)O)C[C@]4(C)[C@H]3CC[C@]12C`, the results for the MIC in the assay with Nakaseomyces glabratus [8] and in the assay with Aspergillus fumigatus [2] (read-out: MIC) were 32 µg/mL (≈ 52.9 µM) and 8 µg/mL (≈ 13.2 µM), respectively. Further, the “growth inhibition (GI)” value in the assay with Aspergillus fumigatus [6] is “Active”.
As for `CC(=O)O[C@]12C[C@@H]3CC[C@H]4[C@@H]5CCC[C@@]5(C)CC[C@@H]4[C@@]3(C)C[C@H]1O2`, in the assay with Candida albicans [1], the MIC was found to be 4 µg/mL (≈ 12 µM).
Compound `CC(=O)O[C@@H]1C[C@@]2(C)[C@@H](CC[C@@H]3[C@@H]2CC[C@]2(C)[C@@H]([C@H](C)CCCC(C)C)CC[C@@H]32)CC1=O` yielded a minimum inhibitory concentration (MIC) against Aspergillus fumigatus [2] of 128 µg/mL (≈ 288 µM). Besides, in the assay on Candida albicans [3], the “growth inhibition (GI)” value was “Active”.
In the case of `CC(C)CCC[C@@H](C)[C@H]1CC[C@H]2[C@@H]3CC[C@H]4C[C@@H](O)CC[C@]4(C)[C@H]3CC[C@]12C`, the “growth inhibition (GI)” value with Candida albicans [3], in the assay on Nakaseomyces glabratus [4], in the assay with Cryptococcus neoformans [5] and in the assay with Aspergillus fumigatus [6] was “Active” in each case.
Turning to `CC(=O)O[C@@H]1C[C@@]2(C)[C@@H](CC[C@@H]3[C@@H]2CC[C@]2(C)[C@@H]([C@H](C)CCCC(C)C)CC[C@@H]32)C[C@H]1O`, in the assay with Cryptococcus neoformans [7], the lowest concentration to inhibit growth (MIC) was 4 µg/mL (≈ 8.95 µM).
`CC(C)CCC[C@@H](C)[C@H]1CC[C@H]2[C@@H]3CC[C@H]4C[C@@H](O)[C@H](O)C[C@]4(C)[C@H]3CC[C@]12C` registered a minimum inhibitory concentration (MIC) against Cryptococcus neoformans [7] of 32 µg/mL (≈ 79.1 µM).

For the origin of these results see ChEMBL document CHEMBL1287729, “Novel and efficient synthesis and antifungal evaluation of 2,3-functionalized cholestane and androstane derivatives” (2010).
